Assay results reported in patent US6545131B1, “Tissue specific prodrug” (priority 1997, dated 2003).
Starred links: 1 amine or outer side, 2 acyl side, 3 side chain; linkers in the order of their positions; H or OH if unused. Residues, ends and D or L forms follow the SMILES beside them. *: point of attachment. AMC = Cc1cc(=O)oc2cc(N*)ccc12; Morpholide = C1CN(*)CCO1; CO = O=C([*:1])[*:2]

Legend:
[1] = molecular target: T1, PSA (prostate specific antigen) (Homo sapiens, UniProt P07288); assay: Cleavage of AMC-labelled peptide substrates by purified PSA (fluorescence of released AMC; Lineweaver-Burke kinetics); type: biochemical; settings: for Picomoles of substrate cleaved/minute/200 pmoles of indicated protease: PSA: PSA assay buffer pH 7.8, room temperature; for Kcat / Km: PSA substrate, PSA assay buffer pH 7.8, Lineweaver-Burke
T1 construct: PSA was purified from human seminal plasma; from tissue; host or cells: human seminal plasma
Experimental: (§1) The peptides discussed herein were custom synthesized by Enzyme Systems Products (Dublin, Calif.) and, after HPLC separation and purification to >95%, the molecular weights were confirmed by mass spectroscopy. All peptides had morpholinocarbonyl protecting the amino terminus and 7-amino-4-methylcoumarin (AMC) attached via an amide bond to the carboxyl group of the carboxy-terminal amino acid. Peptides were first dissolved in distilled water (5 mM) and then diluted into PSA assay buffer (50 mM Tris/0.1M NaCl pH 7.8). The glutamine-AMC peptide had the amino terminus and side chain amine unprotected and was obtained from Bachem (Torrance, Calif.).
(§2) PSA was purified from human seminal plasma as described in Christensson, et al. Eur. J. Biochem. 194:755-765, (1990). Plasmin, urokinase, tissue plasminogen activator (TPA), human plasma and porcine pancreatic kallikrein and a 1-antichymotrypsin were obtained from Calbiochem (San Diego, Calif.). All other proteases were obtained from Sigma Chemical Co. (St. Louis, Mo.). Mouse serum was obtained from East Acres Biologicals (South Bridge, Mass.). Goat and calf sera were obtained from Gibco BRL (Grand Island, N.Y.). Rat serum was obtained in-house from sacrificed animals. Human serum was obtained from volunteers.
(§3) Cleavage was studied by measuring fluorescence change secondary to AMC release. Fluorescence detection was carried out with a Fluoroskan II 96 well fluorometric plate reader (ICN Biomedicals, Costa Mesa, Calif.), with excitation wavelength 355 nm and emission wavelength 460 nm. Data were collected and analyzed using Deltasoft III software (Biometallics, Princeton, N.J.). All reactions were performed at room temperature by the addition of substrate and proteases into PSA buffer, described below, in a final volume of 200 μL. The results were determined from the initial linear increase of fluorescence and were expressed as the picomoles of AMC released per minute based upon comparison to a standard curve of the fluorescence of known amounts of AMC (i.e., fluorescence was linear form 20 to 300 picomoles of AMC). The data were analyzed by Lineweaver-Burke reciprocal plots to determine the Michaelis-Menten constant (i.e., Km) expressed as the amount of substrate needed to saturate half of the enzyme and the catalytic rate constant (i.e., kcat) expressed as the amount of substrate converted to product per time per amount of enzyme.
(§4) Each assay contains 200 picomoles of the particular protease and 0.2 mM concentration of the particular substrate (i.e., 40,000 picomoles/200 μL of assay volume). The amino acid sequences expressed in one letter amino acid code represent the following amino acid sequences in the three letter amino acid code: EHSSKLQ (Glu-His-Ser-Ser-Lys-Leu-Gln; SEQ ID NO:10), QNKISYQ (Gln-Asn-Lys-Ile-Ser-Tyr-Gln; SEQ ID NO:11), ENKISYQ (Glu-Asn-Lys-Ile-Ser-Tyr-Gln; SEQ ID NO:12), and ATKSKQH (Ala-Thr-Lys-Ser-Lys-Gln-His; SEQ ID NO:13). Determinations listed in the table were carried out with substrates at 0.2 mM concentration in the PSA assay buffer (50 mM Tris/0.1M NaCl pH 7.8). The entry “UD” stands for “undetectable” and means that at most, 0.1 pmole of substrate cleavage per minute per 200 pmole protease took place. Asterisks represent experiments not performed. Abbreviations are as follows: PSA (prostate specific antigen), Chymo (chymotrypsin), Urokin (urokinase), TPA (tissue plasminogen activator), Thromb (thrombin), Kallik (human kallikrein, hK1).
The data in Table 2 are the results of kinetic experiments with the peptide substrates used in Example 1. Experimental details are found in Example 1.
The amino acid sequences expressed in one letter amino acid code represent the following amino acid sequences in the three letter amino acid code: EHSSKLQ (Glu-His-Ser-Ser-Lys-Leu-Gln; SEQ ID NO:10), HSSKLQ (His-Ser-Ser-Lys-Leu-Gln; SEQ ID NO:7), SKLQ (Ser-Lys-Leu-Gln; SEQ ID NO:1), and ATKSKQH (Ala-Thr-Lys-Ser-Lys-Gln-His; SEQ ID NO:13). […]

[2] = tested on: Elastase; assay: Peptide-AMC cleavage by purified extracellular protease; type: biochemical; settings: 0.2 mM substrate, PSA assay buffer pH 7.8
Experimental: as §1, §2, §3, §4

[3] = molecular target: T2, Plasmin (Homo sapiens, UniProt P00747); assay: as above; type: biochemical; settings: 0.2 mM substrate, PSA assay buffer pH 7.8
T2 construct: purchased Calbiochem
Experimental: as §1, §2, §3, §4

[4] = tested on: Trypsin; assay: as above; type: biochemical; settings: 0.2 mM substrate, PSA assay buffer pH 7.8
Experimental: as §1, §2, §3, §4

[5] = molecular target: T3, chymotrypsin (Bos taurus, UniProt P00766); assay: as above; type: biochemical; settings: 0.2 mM substrate, PSA assay buffer pH 7.8
T3 construct: purchased Sigma Chemical Co
Experimental: as §1, §2, §3, §4

[6] = tested on: human kallikrein, hK1; assay: as above; type: biochemical; settings: 0.2 mM substrate, PSA assay buffer pH 7.8
Experimental: as §1, §2, §3, §4

[7] = molecular target: T4, thrombin (Homo sapiens, UniProt P00734); assay: as above; type: biochemical; settings: 0.2 mM substrate, PSA assay buffer pH 7.8
T4 construct: purchased Sigma Chemical Co
Experimental: as §1, §2, §3, §4

[8] = molecular target: T5, tissue plasminogen activator (TPA) (Homo sapiens, UniProt P00750); assay: as above; type: biochemical; settings: 0.2 mM substrate, PSA assay buffer pH 7.8
T5 construct: purchased Calbiochem
Experimental: as §1, §2, §3, §4

[9] = molecular target: T6, urokinase (Homo sapiens, UniProt P00749); assay: as above; type: biochemical; settings: 0.2 mM substrate, PSA assay buffer pH 7.8
T6 construct: purchased Calbiochem
Experimental: as §1, §2, §3, §4

[10] = Stability of PSA substrates in serum (AMC release); type: in vitro ADME; settings: 0.2 mM substrate; for picomles AMC released/minute: Human: human serum 100%
Source text: as §2, §3
Because the prodrug can be given systemically via the blood, it is useful to determine the stability of the substrates in sera from a variety of species. The substrates and experimental details are found as described in Example 1.
The amino acid sequences expressed in one letter amino acid code represent the following amino acid sequences in the three letter amino acid code: EHSSKLQ (Glu-His-Ser-Ser-Lys-Leu-Gln; SEQ ID NO:10), QNKISYQ (Gln-Asn-Lys-Ile-Ser-Tyr-Gln; SEQ ID NO:11), ENKISYQ (Glu-Asn-Lys-Ile-Ser-Tyr-Gln; SEQ ID NO:12) and ATKSKQH (Ala-Thr-Lys-Ser-Lys-Gln-His; SEQ ID NO:13). Determinations listed in the table were carried out with substrates at 0.2 mM concentration in the PSA assay buffer (50 mM Tris/0.1M NaCl pH 7.8). AMC is 7-amino-4-methylcoumarin. The human serum used was 100% for each assay. The entry “UD” stands for “undetectable”, and means that not more than 0.01 picomole of substrate per minute was cleaved.

[11] = molecular target: T7, Cathepsin B (Homo sapiens, UniProt P07858); assay: PSA substrate cleavage by purified intracellular protease; type: biochemical; settings: 0.2 mM substrate, pH 7.8; SKLQ, KLQ, LQ in 1.4% acetonitrile/buffer, Q-AMC in 0.2% formic acid/buffer
T7 construct: purchased Sigma Chemical Co
Experimental: as §3
(§5) A family of peptide substrates based upon the EHSSKLQ (SEQ ID NO:10) sequence was assayed for activity for the intracellular proteases, and the results given in Table 4.
(§6) The amino acid sequences expressed in one letter amino acid code represent the following amino acid sequences in the three letter amino acid code: EHSSKLQ (Glu-His-Ser-Ser-Lys-Leu-Gln; SEQ ID NO:10), The shorter sequences are formed by deleting amino acids from the amino terminal side of the sequence. Determinations listed in the table were carried out with substrates at 0.2 mM concentration in the PSA assay buffer (50 mM Tris/0.1M NaCl pH 7.8), except SKLQ (SEQ ID NO:1), KLQ and LQ, which were carried out in 1.4% acetonitrile/buffer and Q-AMC which was carried out in 0.2% formic acid/buffer, at pH 7.8. The entry “UD” stands for “undetectable” and means that at most, 0.1 pmole of substrate cleavage per minute per 200 pmole protease took place. Asterisks represent experiments not performed. Abbreviations are as follows: PSA (prostate specific antigen), Cath B, C, D (Cathepsins, B, C, D), Esterase (porcine liver esterase).

[12] = molecular target: T8, Cathepsin C (Homo sapiens, UniProt P53634); assay: as above; type: biochemical; settings: 0.2 mM substrate, pH 7.8; SKLQ, KLQ, LQ in 1.4% acetonitrile/buffer, Q-AMC in 0.2% formic acid/buffer
T8 construct: purchased Sigma Chemical Co
Experimental: as §3, §5, §6

[13] = molecular target: T9, Cathepsin D (Homo sapiens, UniProt P07339); assay: as above; type: biochemical; settings: 0.2 mM substrate, pH 7.8; SKLQ, KLQ, LQ in 1.4% acetonitrile/buffer, Q-AMC in 0.2% formic acid/buffer
T9 construct: purchased Sigma Chemical Co
Experimental: as §3, §5, §6

[14] = tested on: porcine liver esterase; assay: as above; type: biochemical; settings: 0.2 mM substrate, pH 7.8; SKLQ, KLQ, LQ in 1.4% acetonitrile/buffer, Q-AMC in 0.2% formic acid/buffer
Experimental: as §3, §5, §6

T1 sequence (P07288 25-261): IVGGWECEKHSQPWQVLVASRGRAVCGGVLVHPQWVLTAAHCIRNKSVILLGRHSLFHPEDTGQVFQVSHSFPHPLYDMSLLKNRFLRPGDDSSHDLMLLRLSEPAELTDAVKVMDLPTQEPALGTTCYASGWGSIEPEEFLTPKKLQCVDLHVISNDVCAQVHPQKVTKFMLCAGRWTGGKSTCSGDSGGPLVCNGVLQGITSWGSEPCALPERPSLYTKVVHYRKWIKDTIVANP
T5 sequence (P00750 36-562, species assumed): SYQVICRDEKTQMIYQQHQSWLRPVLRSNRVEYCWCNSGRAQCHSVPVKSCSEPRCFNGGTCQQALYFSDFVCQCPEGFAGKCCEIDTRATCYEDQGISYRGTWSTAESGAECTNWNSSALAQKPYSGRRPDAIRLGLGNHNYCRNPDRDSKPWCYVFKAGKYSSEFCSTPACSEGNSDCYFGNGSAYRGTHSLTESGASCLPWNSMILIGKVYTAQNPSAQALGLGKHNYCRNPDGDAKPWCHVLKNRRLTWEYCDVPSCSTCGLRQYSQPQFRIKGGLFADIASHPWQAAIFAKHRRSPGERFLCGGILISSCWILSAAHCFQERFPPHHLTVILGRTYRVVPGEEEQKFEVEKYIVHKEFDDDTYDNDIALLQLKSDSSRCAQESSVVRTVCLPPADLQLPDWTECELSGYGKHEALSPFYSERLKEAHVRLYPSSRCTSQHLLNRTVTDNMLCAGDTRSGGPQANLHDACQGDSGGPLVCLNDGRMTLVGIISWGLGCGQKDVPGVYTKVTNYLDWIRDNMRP
T2 sequence (P00747 581-810 limits assumed, species assumed): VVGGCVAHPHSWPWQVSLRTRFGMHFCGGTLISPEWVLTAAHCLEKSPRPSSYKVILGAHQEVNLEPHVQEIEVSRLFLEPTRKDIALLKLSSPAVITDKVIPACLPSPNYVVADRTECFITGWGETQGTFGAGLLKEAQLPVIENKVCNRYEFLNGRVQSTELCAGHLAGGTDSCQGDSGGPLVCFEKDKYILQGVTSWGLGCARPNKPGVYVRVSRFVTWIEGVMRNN
T2 sequence (P00747 97-580 partner limits assumed, species assumed): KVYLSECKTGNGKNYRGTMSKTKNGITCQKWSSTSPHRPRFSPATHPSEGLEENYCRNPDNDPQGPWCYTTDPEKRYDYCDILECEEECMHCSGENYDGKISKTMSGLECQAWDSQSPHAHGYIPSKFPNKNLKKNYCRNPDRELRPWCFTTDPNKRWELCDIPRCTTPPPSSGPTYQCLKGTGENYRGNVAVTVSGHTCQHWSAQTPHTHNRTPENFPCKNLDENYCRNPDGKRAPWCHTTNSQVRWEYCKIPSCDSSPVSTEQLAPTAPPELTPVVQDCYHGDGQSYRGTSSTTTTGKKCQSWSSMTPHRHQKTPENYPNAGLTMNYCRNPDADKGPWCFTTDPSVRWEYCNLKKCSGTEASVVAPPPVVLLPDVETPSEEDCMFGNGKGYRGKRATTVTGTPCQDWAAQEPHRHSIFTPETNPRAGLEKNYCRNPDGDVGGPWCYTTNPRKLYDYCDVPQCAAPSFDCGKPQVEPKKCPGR
T8 sequence (P53634 25-463): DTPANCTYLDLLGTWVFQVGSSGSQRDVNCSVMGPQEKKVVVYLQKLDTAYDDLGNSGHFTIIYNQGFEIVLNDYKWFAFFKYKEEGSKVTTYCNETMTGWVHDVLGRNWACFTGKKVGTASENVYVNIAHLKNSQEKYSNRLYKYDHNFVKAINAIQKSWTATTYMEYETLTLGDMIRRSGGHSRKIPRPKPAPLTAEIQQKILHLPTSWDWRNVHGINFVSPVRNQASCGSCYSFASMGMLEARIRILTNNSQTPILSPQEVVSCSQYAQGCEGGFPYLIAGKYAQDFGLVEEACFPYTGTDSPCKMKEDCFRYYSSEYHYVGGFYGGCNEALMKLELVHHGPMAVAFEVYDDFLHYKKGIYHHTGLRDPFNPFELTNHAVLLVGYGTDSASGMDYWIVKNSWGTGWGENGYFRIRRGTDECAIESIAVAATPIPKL
T9 sequence (P07339 65-412): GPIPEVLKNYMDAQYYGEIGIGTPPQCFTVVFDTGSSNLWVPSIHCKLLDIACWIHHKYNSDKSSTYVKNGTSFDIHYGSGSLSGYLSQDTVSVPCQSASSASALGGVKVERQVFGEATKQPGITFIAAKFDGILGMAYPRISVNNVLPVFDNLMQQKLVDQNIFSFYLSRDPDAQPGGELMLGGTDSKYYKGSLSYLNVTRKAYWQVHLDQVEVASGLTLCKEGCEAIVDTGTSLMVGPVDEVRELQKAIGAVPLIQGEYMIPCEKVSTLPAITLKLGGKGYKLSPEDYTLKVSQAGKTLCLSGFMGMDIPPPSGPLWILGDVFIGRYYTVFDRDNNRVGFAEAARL

Compound | Picomoles of substrate cleaved/minute/200 pmoles of indicated protease: PSA ([1]; 0.2 mM substrate) | Kcat [1] [s⁻¹] | Km [1] [µM] | Picomoles of substrate cleaved/minute/200 pmoles of indicated protease: Elastase [2] | Picomoles of substrate cleaved/minute/200 pmoles of indicated protease: Plasmin [3] | Picomoles of substrate cleaved/minute/200 pmoles of indicated protease: Trypsin [4] | Picomoles of substrate cleaved/minute/200 pmoles of indicated protease: Chymo [5] | Picomoles of substrate cleaved/minute/200 pmoles of indicated protease: Kallik [6] | Picomoles of substrate cleaved/minute/200 pmoles of indicated protease: Thromb [7] | Picomoles of substrate cleaved/minute/200 pmoles of indicated protease: TPA [8] | Picomoles of substrate cleaved/minute/200 pmoles of indicated protease: Urokin [9] | picomles AMC released/minute: Calf [10] | picomles AMC released/minute: Fetal Calf [10] [picomoles/minute] | picomles AMC released/minute: Goat [10] [picomoles/minute] | picomles AMC released/minute: Mouse [10] [picomoles/minute] | picomles AMC released/minute: Rat [10] [picomoles/minute] | picomles AMC released/minute: Human [10] | also measured
Cc1cc(=O)oc2cc(NC(=O)[C@H](Cc3c[nH]cn3)NC(=O)[C@H](CCC(N)=O)NC(=O)[C@H](CCCCN)NC(=O)[C@H](CO)NC(=O)[C@H](CCCCN)NC(=O)[C@@H](NC(=O)[C@H](C)NC(=O)N3CCOCC3)[C@@H](C)O)ccc12 [ATKSKQH, Ala-Thr-Lys-Ser-Lys-Gln-His] ({Morpholide-CO}-ATKSKQH-{AMC}) | 16.0 picomoles/minute/200 pmoles pr | 0.0091 | 310 | UD (at most, 0.1 pmole of substrate cleavage per minute per 200 pmole protease took place) | UD (at most, 0.1 pmole of substrate cleavage per minute per 200 pmole protease took place) | UD (at most, 0.1 pmole of substrate cleavage per minute per 200 pmole protease took place) | 38.8 picomoles/minute/200 pmoles pr | UD (at most, 0.1 pmole of substrate cleavage per minute per 200 pmole protease took place) | 0.2 picomoles/minute/200 pmoles pr | UD (at most, 0.1 pmole of substrate cleavage per minute per 200 pmole protease took place) | UD (at most, 0.1 pmole of substrate cleavage per minute per 200 pmole protease took place) | UD (not more than 0.01 picomole of substrate per minute was cleaved) | 1.19 | 0.35 | 0.60 | 4.31 | UD (not more than 0.01 picomole of substrate per minute was cleaved) | 
CC[C@H](C)[C@H](NC(=O)[C@H](CCCCN)NC(=O)[C@H](CC(N)=O)NC(=O)[C@H](CCC(=O)O)NC(=O)N1CCOCC1)C(=O)N[C@@H](CO)C(=O)N[C@@H](Cc1ccc(O)cc1)C(=O)N[C@@H](CCC(N)=O)C(=O)Nc1ccc2c(C)cc(=O)oc2c1 [ENKISYQ, Glu-Asn-Lys-Ile-Ser-Tyr-Gln] ({Morpholide-CO}-ENKISYQ-{AMC}) | 14.4 picomoles/minute/200 pmoles pr |  |  | 2.6 picomoles/minute/200 pmoles pr | 0.6 picomoles/minute/200 pmoles pr | 1.8 picomoles/minute/200 pmoles pr | 3.6 picomoles/minute/200 pmoles pr | UD (at most, 0.1 pmole of substrate cleavage per minute per 200 pmole protease took place) | 0.3 picomoles/minute/200 pmoles pr | .04 picomoles/minute/200 pmoles pr | UD (at most, 0.1 pmole of substrate cleavage per minute per 200 pmole protease took place) | UD (not more than 0.01 picomole of substrate per minute was cleaved) | 9.59 | 3.18 | 3.71 | 11.2 | 1.27 picomoles/minute | 
Cc1cc(=O)oc2cc(NC(=O)[C@H](CCC(N)=O)NC(=O)[C@H](CC(C)C)NC(=O)[C@H](CCCCN)NC(=O)[C@H](CO)NC(=O)[C@H](CO)NC(=O)[C@H](Cc3c[nH]cn3)NC(=O)N3CCOCC3)ccc12 [HSSKLQ, His-Ser-Ser-Lys-Leu-Gln] ({Morpholide-CO}-HSSKLQ-{AMC}) |  | 0.011 | 470 |  |  |  |  |  |  |  |  |  |  |  |  |  |  | picomoles of peptide cleaved/min/200 picomoles protease: PSA ([1]; 0.2 mM substrate, pH 7.8, SKLQ, KLQ, LQ in 1.4% acetonitrile/buffer, Q-AMC in 0.2% formic acid/buffer): 62.7 picomoles/min/200 picomoles pr; picomoles of peptide cleaved/min/200 picomoles protease: Cath B [11]: 17.3 picomoles/min/200 picomoles pr; picomoles of peptide cleaved/min/200 picomoles protease: Cath C [12]: UD (at most, 0.1 pmole of substrate cleavage per minute per 200 pmole protease took place); picomoles of peptide cleaved/min/200 picomoles protease: Cath D [13]: 3.8 picomoles/min/200 picomoles pr; picomoles of peptide cleaved/min/200 picomoles protease: Esterase [14]: UD (at most, 0.1 pmole of substrate cleavage per minute per 200 pmole protease took place)
